Columns and labels:
colon tissue = experiment: Ussing chamber permeability of colon tissue to 3H-mannitol and LPS; format: cell-based, feedlot steers; conditions: for increase of permeability of colon tissue to 3H-mannitol: acidic pH 5.5 and presence of LPS (500 μg/mL), Ussing chamber
From the text: FIG. 6 is a graph depicting permeability of colon tissue (obtained from killed feedlot steers) to ^3H-labeled mannitol under different pH values and in the presence (▪) or absence (□) of lipopolysaccharide (LPS) from E. coli B:055 in an Ussing chamber.
FIG. 8 is a graph depicting translocation of LPS across colon tissue (obtained from killed feedlot steers) under different pH values and in the presence (▪) or absence (□) of lipopolysaccharide (LPS) from E. coli B:055 in an Ussing chamber.
(§1) Accordingly, we investigated whether common rumen fluid and colon concentrations of lipopolysaccharide (LPS) would affect the permeability of rumen and colon tissues to mannitol and LPS in Ussing chambers. In addition, this study was designed to answer the question whether acidic conditions similar to those found in the rumen fluid and colon during conditions of sub-acute and acute acidosis would affect the permeability of rumen and colon tissues to mannitol and LPS.
(§2) Mannitol is a monosaccharide with a molecular weight of 182 daltons and normally is not metabolized by mammalian tissues. Mannitol normally goes through mucosal tissues in small amounts and has been used to evaluate the integrity of mucosal barriers. […] Both acidic pH and presence of LPS disrupts mucosal membranes and make them leaky to bacteria and toxic compounds like endotoxin.
(§3) This means that LPS went through the mucosal membranes (rumen and colon tissues) independently of the pH value.

rumen tissue = experiment: Ussing chamber permeability of rumen tissue to 3H-mannitol and LPS; format: cell-based, feedlot steers; conditions: for increase of permeability of rumen tissue to 3H-mannitol: acidic pH 4.5 and presence of LPS (500 μg/mL), Ussing chamber
From the text: FIG. 5 is a graph depicting permeability of rumen tissue (obtained from killed feedlot steers) to ^3H-labeled mannitol under different pH values and in the presence (▪) or absence (□) of lipopolysaccharide (LPS) from E. coli B:055 in an Ussing chamber.
FIG. 7 is a graph depicting translocation of LPS across rumen tissue (obtained from killed feedlot steers) under different pH values and in the presence (▪) or absence (□) of lipopolysaccharide (LPS) from E. coli B:055 in an Ussing chamber.
as §1, §2, §3

transition dairy cows [1] = experiment: Plasma metabolites, minerals and acute phase proteins of transition cows given LPS; format: in vivo, Holstein cows; conditions: oral
From the text: (§4) During their final 3 wk prepartum, 32 multiparous Holstein cows were housed in a tie-stall barn with wood shavings for bedding, the number at any given time varied depending on the number of cows at that stage of gestation. Cows were blocked based on their parity, previous milk production as well as their expected day of calving and randomly assigned to one of the four treatment groups (8 cows/group) in a randomized blocked design 2 wk before the expected day of calving until 4 wk postpartum. Cows were offered dry-period and early-lactation diets, formulated according to NRC recommendation (2001) for transition dairy cows.
(§5) The four groups of cows were administered on d 14, 11, 7, and 4 before the expected day of parturition as well as on d 1 and 3 after parturition, one of the following treatments: (1) oral delivery of 2 mL of saline (0.15 M NaCl), (2) oral delivery of 2 mL of saline containing lipopolysaccharide (LPS) from Escherichia coli 0111:B4 (Sigma, St. Louis, Mo.), (3) intravenous delivery of 100 mL of saline (0.15 M NaCl), or (4) intravenous delivery of 100 mL of saline containing LPS from E. coli 0111:B4. A 5 mL syringe was used for administration of treatment into the oral cavity. The amount of LPS given to cows orally or intravenously (iv) was as follows: (1) on d 14 and 11 before the expected day of parturition 0.01 μg/kg of BW dissolved in 2 mL (oral) or 100 mL (iv) of saline, (2) on d 7 and 4 before the expected day of parturition 0.05 μg/kg of BW dissolved in 2 mL (oral) or 100 mL (iv) of saline, and (3) on d 1 and 3 after parturition 0.1 μg/kg of BW dissolved in 2 mL (oral) or 100 mL (iv) of saline. Cows were given one flat dose of LPS based on the 650 kg average body weight of cows at Dairy Research and Technology Transfer. Rectal temperature, respiration rate, and rumen contraction was measured from all cows 15 min before as well as 60, 120, 180, 240, 300, and 360 min after administration of treatment.
A catheter was introduced into the jugular vein 1 h before the administration of treatment to all cows in the experiment. Blood samples were obtained from the jugular catheter 15 min before as well as at 15, 30, 60, 120, 180, 240, 300, and 360 min after administration of treatment on d 14, 11, 7, and 4 before the expected day of parturition as well as on d 1 and 3 after parturition. Also, 1 single blood sample was obtained during d 10, 17, and 24 after parturition.
(§6) Blood was collected into 10-ml Vacutainer tubes (Beckton Dickinson and Co., Rutherford, N.J.) containing K3-EDTA, and plasma was prepared by centrifugation within 20 min. Plasma samples were stored at −20° C. until analyzed for concentrations of serum amyloid A (SAA), lipopolysaccharide-binding protein (LBP), haptoglobin, C-reactive protein (CRP), glucose, insulin, non-esterified fatty acids (NEFA), beta-hydroxybutyric acid (BHBA), lactate, cholesterol, cortisol, calcium, copper, iron, zinc as well as anti-LPS immunoglobulin A, G, and M.

transition dairy cows [2] = experiment: Plasma anti-LPS immunoglobulins A, G and M of transition cows given oral LPS; format: in vivo, Holstein cows; conditions: around parturition
From the text: as §4
The four groups of cows were administered on d 14, 11, 7, and 4 before the expected day of parturition as well as on d 1 and 3 after parturition, one of the following treatments: (1) oral delivery of 2 mL of saline (0.15 M NaCl), (2) oral delivery of 2 mL of saline containing lipopolysaccharide (LPS) from Escherichia coli 0111:B4 (Sigma, St. Louis, Mo.), (3) intravenous delivery of 100 mL of saline (0.15 M NaCl), or (4) intravenous delivery of 100 mL of saline containing LPS from E. coli 0111:B4. A 5 mL syringe was used for administration of treatment into the oral cavity. […] Rectal temperature, respiration rate, and rumen contraction was measured from all cows 15 min before as well as 60, 120, 180, 240, 300, and 360 min after administration of treatment. […]
as §6

transition dairy cows [3] = experiment: Clinical incidence of postpartal metabolic disorders after oral vaccination of transition cows; format: in vivo, Holstein cows; conditions: for reduction of the incidence of metabolic disorders: vs oral saline
From the text: as §4
Diets were mixed and offered as TMR individually once a day at 0600 h. Orts were recorded and discarded before the next feeding each day and the amount of feed was adjusted to ensure a 10% feed residual. Cows were milked twice a day at 0400 and 1500 h, and milk yield was recorded electronically every day for the first 28 days of lactation. All clinical disease and medication were recorded daily during the whole experimental period. The experiment was conducted at the University of Alberta Dairy Research and Technology Center, Edmonton, Canada. All cows were managed and treated in accordance with the guidelines established by the Canadian Council on Animal Care (1993) and all animal-related procedures were approved by the University of Alberta Faculty Animal Policy and Welfare Committee.
as §5

transition dairy cows [4] = experiment: Clinical responses, dry matter intake and milk yield of transition cows given LPS; format: in vivo, Holstein cows; conditions: oral; whole experimental period
From the text: We then investigated how transition cows respond clinically to repeated oral and intravenous exposure to an E. coli antigen (E. coli lipopolysaccharide—(“LPS”)) during the 2 weeks before and 1 week after calving, and to determine the effects of repeated oral or intravenous administration of E. coli LPS on eating behaviour and milk yield during the transition period.
as §4, with “Cows were offered dry-period and early-lactation diets, formulated according to NRC recommendation (2001) for transition dairy cows.” left out
Diets were mixed and offered as TMR individually once a day at 0600 h. Orts were recorded and discarded before the next feeding each day and the amount of feed was adjusted to ensure a 10% feed residual. Cows were milked twice a day at 0400 and 1500 h, and milk yield was recorded electronically every day for the first 28 days of lactation. All clinical disease and medication were recorded daily during the whole experimental period. […]

[5] = listed as lipopolysaccharide (LPS) from Escherichia coli 0:B55
[6] = during 6 h after administration, first week after parturition

lipopolysaccharide (LPS) from E. coli B:055 [LPS from E. coli strain B:055]
increase of permeability of colon tissue to 3H-mannitol (colon tissue): increase several fold
increase of permeability of colon tissue to 3H-mannitol (colon tissue; [5]): 5 fold
effect on permeability of colon tissue to mannitol (colon tissue; pH values between 5.5 and 7.4): did not affect
increase of permeability of rumen tissue to 3H-mannitol (rumen tissue): increase several fold
increase of permeability of rumen tissue to 3H-mannitol (rumen tissue; [5]): 4 fold
effect on permeability of rumen tissue to mannitol (rumen tissue; pH values between 5.5 and 7.4): did not affect

lipopolysaccharide (LPS) from Escherichia coli 0111:B4 [LPS from E. coli 0111:B4]
plasma glucose concentration vs control cows (transition dairy cows [1]; 2 wk before and 1 wk after calving): did not change and were higher
plasma insulin vs control cows (transition dairy cows [1]; around parturition): higher
plasma zinc (transition dairy cows [1]; around parturition): prevented the decline
plasma copper (transition dairy cows [1]; before and after calving): no changes
plasma BHBA concentration vs control cows (transition dairy cows [1]; [6]): lower
plasma NEFA concentration vs control cows (transition dairy cows [1]; [6]): lower
plasma cholesterol concentration vs control cows (transition dairy cows [1]; during the 6 h after treatment, last day of the vaccination): Higher
plasma lipopolysaccharide-binding protein (LBP) vs control cows (transition dairy cows [1]; especially first 3 days after calving): higher in control cows than in vaccinated ones
plasma serum amyloid A (SAA) vs control group (transition dairy cows [1]; experimental period): no significant differences
plasma cholesterol concentration vs control cows (transition dairy cows [1]; experimental period / first week after parturition): did not change between the two groups
plasma glucose concentration vs control cows (transition dairy cows [1]; first week after calving, before and after vaccination (FIG. 17)): higher
increase of plasma concentration of anti-LPS immunoglobulin M (IgM) (transition dairy cows [2]): several fold
plasma IgA antibodies against endotoxin vs control cows (transition dairy cows [2]): lower in vaccinated cows compared with the control ones, although the difference did not reach significant level
plasma anti-endotoxin IgG antibodies vs control cows (transition dairy cows [2]): lower
clinical record of individual cow (transition dairy cows [3]; oral LPS group, one cow per block): Normal—Calved day 1, Lameness day 44, Mastitis day 71
reduction of the incidence of metabolic disorders (transition dairy cows [3]; oral, after 30 d of parturition): 66%
cows affected by metabolic disorders (transition dairy cows [3]; oral, first 30 days after parturition): not affected by any metabolic disorders
cows of the group affected (lameness and mastitis) (transition dairy cows [3]; oral, more than 30 days after parturition, one cow): 12%
reduction of the incidence of metabolic disorders (transition dairy cows [3]; oral, within the first 30 d after parturition): 100%
dry matter intake vs control cows (transition dairy cows [4]): no differences

— patent publication US8920814B2, “Bacterial endotoxin for the prevention of metabolic disorders and bacterial infections” (The Governors of the University of Alberta, priority 2007, dated 2014)
